Key:
[1] = Kidney function indicators (Scr, eGFR) during PB therapy; assay type: in vivo, human; details: elderly patients, 100-mg maintenance dose, after an average of 3.83 days
Source text: This study was approved by the Medical Ethics Committee of Shandong Provincial Hospital (No. 2021–356). Written informed consent was obtained from all patients or their legal representatives. Herein, we included 14 elderly patients (65≤ Age ≤95) who received intravenous PB injections (polymyxin B sulfate for injection, Shanghai First Biochemical Pharmaceutical Co., Ltd.) in the period between April 2021 and January 2023 for treating infections caused by multidrug-resistant Gram-negative bacteria. […] CrCL was calculated using the Cockcroft–Gault equation. […] A total of 112 blood samples were collected and detected, and all of these were stored at −70°C. After analysis by the validated methods, PK parameters were calculated by non-compartmental analysis using Phoenix WinNonlin software 8.3 (Certara, United States).
The recommended AUCss, 24 h range of PB, which is based on the therapeutic window of the drug, is between 50 and 100 μg h/mL ([Tsuji et al., 2019]; [Liu et al., 2023]). […] To avoid the MS/MS crosstalk among the above-mentioned analytes undermining their detection sensitivity and quantitative accuracy, each analyte should be quantified with satisfactory chromatographic separation. […] However, crosstalk still should be measured in a high concentration level. […]

[2] = Stability of PB1 and PB2 in human plasma under different storage conditions; details: human plasma: 24 h at room temperature (25°C), 24 h at 4°C (post preparative), three freeze–thaw cycles, 85 days at −70°C
Procedure: The stock solutions of the calibrators and quality control (QC) samples should be prepared separately in the same way. The PB stock solution for calibrators and QC samples was prepared in water (1% FA) at 400.48 μg/mL for PB1 and 40.84 μg/mL for PB2. Consequently, working solutions for construction of calibrators and QC were prepared by serially diluting the stock solution with a 1% aqueous solution of FA. The concentrations of the working solutions for calibrators were 10.01, 30.03, 50.05, 100.12, 150.18, and 200.24 μg/mL for PB1 and 1.02, 3.06, 5.10, 10.21, 15.31, and 20.42 μg/mL for PB2. The concentrations of working solutions for QCs were prepared at 20.02 μg/mL (LQC), 90.11 μg/mL (MQC), and 180.22 μg/mL (HQC) for PB1 and 2.04 μg/mL (LQC), 9.18 μg/mL (MQC), and 18.36 μg/mL (HQC) for PB2. The working solution of IS (10.00 μg/mL) was prepared using methanol. All the above solutions were stored at −70°C. The calibrators and QC samples were obtained by spiking 90 μL of blank plasma with 10 μL of working solution at the corresponding concentration. The standard curves were in the range of 1.00–20.02 μg/mL and 0.10–2.04 μg/mL for PB1 and PB2, respectively.
Typically, 100 μL of the plasma sample was mixed with 10 μL IS working solution, and then, 300 μL 0.1% FA in methanol was added to the sample for protein precipitation. The mixture was vortexed for 3 min and centrifuged in an Eppendorf 5415D microcentrifuge (Eppendorf, Hamburg, Germany) at 11,000 g rpm for 10 min. Subsequently, 200 μL of the supernatant was transferred into a clean polypropylene tube and diluted with 150 μL of 0.1% FA in water. The mixture solution was vortexed for 3 min and centrifuged at 11,000 rpm for 10 min using the same centrifuge. Finally, 200 μL of the supernatant was transferred into an injection bottle, and 10 μL was injected into the HPLC–MS/MS for analysis.
The stability of the working solutions of PB1 and PB2 was evaluated. The short-term stability and long-term stability of PB1 and PB2 in human plasma were evaluated under the following conditions: placed at room temperature or 4°C for 24 h, frozen and thawed three times, and stored at −70°C for 85 days. The stability evaluation was conducted for both LQC and HQC concentrations.

[3] = population PK, elderly patients; ref Wang et al., 2022; cited from earlier work
Source text: Compared to the administration of a fixed dose of PB, the administration of a body-weight-based dose of PB increases the efficacy of the antibiotic ([Sandri et al., 2013]; [Miglis et al., 2018]; [Tsuji et al., 2019]; [Wang et al., 2021a]). However, clinicians usually administer a fixed dose of PB due to challenges in obtaining accurate body weight information about critically ill patients. Moreover, fixed loading and maintenance doses of polymyxin B appear more appropriate than weight-based dosing regimens in patients within the 45–90-kg BW range ([Hanafin et al., 2023]). This study is the fir ...

[4] = Pharmacokinetic study of intravenous PB in elderly patients infected with multidrug-resistant Gram-negative bacteria; assay type: in vivo, human; details: for AUCss, 24 h: elderly patients, steady state, first-order elimination-based equation, mean ± SD; for Ctrough: human, in vivo
Source text: This study was approved by the Medical Ethics Committee of Shandong Provincial Hospital (No. 2021–356). Written informed consent was obtained from all patients or their legal representatives. Herein, we included 14 elderly patients (65≤ Age ≤95) who received intravenous PB injections (polymyxin B sulfate for injection, Shanghai First Biochemical Pharmaceutical Co., Ltd.) in the period between April 2021 and January 2023 for treating infections caused by multidrug-resistant Gram-negative bacteria. These patients were divided into two groups: in the first group, eight patients received 100 mg loading dose combined with 75 mg maintenance dose q 12 h, and in the other group, six subjects received a 150-mg loading dose and a 100-mg maintenance dose q 12 h. The duration of the intravenous treatment was 1 h. The dosage for all patients was decided by the clinician according to the clinical response. Patients undergoing plasma exchange, continuous renal replacement therapy, or extracorporeal membrane oxygenation were excluded. Clinical and demographic data (age, gender, body weight, pathogens, infection sites, and PB-treatment history) were collected from electronic medical records. Laboratory data, including serum creatinine (Scr), estimated glomerular filtration rate (eGFR), and creatinine clearance (CrCL), were collected on the sampling day. CrCL was calculated using the Cockcroft–Gault equation. On the third day after the administration of the loading dose, blood samples were collected at pre-dose (0 h) and 0.5, 1, 2, 3, 6, 8, and 12 h after the start of administration using EDTA tubes and processed to obtain plasma samples. A total of 112 blood samples were collected and detected, and all of these were stored at −70°C. After analysis by the validated methods, PK parameters were calculated by non-compartmental analysis using Phoenix WinNonlin software 8.3 (Certara, United States).
After validation, the HPLC–MS/MS method was applied to the PK study of PB in elderly patients infected with multidrug-resistant Gram-negative bacteria. A total of 112 blood samples were collected from 14 elderly patients receiving intravenous PB treatment. […] The concentration of PB is the sum of the concentrations of PB1 and PB2 calculated, and it is based on the formula provided by [Liu et al. (2023)]. The individual AUCss, 24 h values were estimated using the first-order elimination-based equation method ([Begg et al., 1995]; [Pai et al., 2014]; [Liu et al., 2023]).

Substance: Polymyxin B [PB]
- mean Scr value during therapy [1]: 111.82 µmol/L
- mean eGFR value during therapy [1]: 66.00 mL/min
- Stability in human plasma (in words) [2]: stable
- typical value of CL [3]: 1.87 L/h
- AUCss, 24 h ([4]; maintenance 75 mg q12h, n = 8): 117.70 ± 37.03 µg·h/mL
- AUCss, 24 h ([4]; maintenance 100 mg q12h, n = 6): 152.73 ± 70.09 µg·h/mL
- Ctrough ([4]; 75 mg): 2.65 ± 1.32 µg/mL
- Ctrough ([4]; 100 mg): 3.40 ± 1.87 µg/mL
